Tested on: 941728-121-R-J1-PDC complex spheroid viability
Experiment: Anticancer human tumor 941728-121-R-J1-PDC patient-derived lung adenocarcinoma cell line growth inhibition [RAS]
Conditions: for IC50: curve of first compound; for viability, T/C: stronger effect = lower value
Method in brief: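 Tumour cells grown as complex spheroids with HUVEC endothelial cells and mesenchymal stem cells, treated with RAS pathway inhibitor combinations. Each agent spans half-log steps from near clinical Cmax, or 10 microM where Cmax is unknown.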
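Also: spheroids exposed to compounds for 7 days before readout.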
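For viability, T/C in this document: 100% = DMSO vehicle control viability.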

SMILES: C=CC(=O)Nc1cc(Nc2nccc(-c3cn(C)c4ccccc34)n2)c(OC)cc1N(C)CCN(C)C + CCn1c(-c2cccnc2C(C)OC)c2c3cc(ccc31)N1CCOC(CC(NC(=O)C(C(C)C)N(C)C(=O)C3(F)CCN(C(=O)C#CC(C)(C)N(C)C)CC3)C(=O)N3CCCC(N3)C(=O)OCC(C)(C)C2)C1
- IC50 (second compound 0.000949 µM): < 3.16 nM
- IC50 (second compound 0.003 µM): 382 nM
- IC50 (second compound 0.00949 µM): < 3.16 nM
- IC50 (second compound 0.03 µM): < 3.16 nM
- IC50 (second compound 0.0949 µM): < 3.16 nM
- IC50 (second compound 0.3 µM): < 3.16 nM
- viability, T/C (second compound 0.000949 µM, first compound 0.00316 µM): 24.4%
- viability, T/C (second compound 0.000949 µM, first compound 0.01 µM): 22.9%
- viability, T/C (second compound 0.000949 µM, first compound 0.0316 µM): 16.2%
- viability, T/C (second compound 0.000949 µM, first compound 0.1 µM): 20.1%
- viability, T/C (second compound 0.000949 µM, first compound 0.316 µM): 19.2%
- viability, T/C (second compound 0.000949 µM, first compound 1 µM): 12.8%
- viability, T/C (second compound 0.003 µM, first compound 0.00316 µM): 89.7%
- viability, T/C (second compound 0.003 µM, first compound 0.01 µM): 91.4%
- viability, T/C (second compound 0.003 µM, first compound 0.0316 µM): 69.4%
- viability, T/C (second compound 0.003 µM, first compound 0.1 µM): 69.9%
- viability, T/C (second compound 0.003 µM, first compound 0.316 µM): 53.1%
- viability, T/C (second compound 0.003 µM, first compound 1 µM): 35.4%
- viability, T/C (second compound 0.00949 µM, first compound 0.00316 µM): 22.7%
- viability, T/C (second compound 0.00949 µM, first compound 0.01 µM): 18.3%
- viability, T/C (second compound 0.00949 µM, first compound 0.0316 µM): 20.5%
- viability, T/C (second compound 0.00949 µM, first compound 0.1 µM): 19.2%
- viability, T/C (second compound 0.00949 µM, first compound 0.316 µM): 16.1%
- viability, T/C (second compound 0.00949 µM, first compound 1 µM): 12.8%
- viability, T/C (second compound 0.03 µM, first compound 0.00316 µM): 25.8%
- viability, T/C (second compound 0.03 µM, first compound 0.01 µM): 20.8%
- viability, T/C (second compound 0.03 µM, first compound 0.0316 µM): 16.8%
- viability, T/C (second compound 0.03 µM, first compound 0.1 µM): 16.9%
- viability, T/C (second compound 0.03 µM, first compound 0.316 µM): 14.2%
- viability, T/C (second compound 0.03 µM, first compound 1 µM): 15.5%
- viability, T/C (second compound 0.0949 µM, first compound 0.00316 µM): 22%
- viability, T/C (second compound 0.0949 µM, first compound 0.01 µM): 22.4%
- viability, T/C (second compound 0.0949 µM, first compound 0.0316 µM): 20.7%
- viability, T/C (second compound 0.0949 µM, first compound 0.1 µM): 16.6%
- viability, T/C (second compound 0.0949 µM, first compound 0.316 µM): 15.9%
- viability, T/C (second compound 0.0949 µM, first compound 1 µM): 17.2%
- viability, T/C (second compound 0.3 µM, first compound 0.00316 µM): 22.5%
- viability, T/C (second compound 0.3 µM, first compound 0.01 µM): 21.6%
- viability, T/C (second compound 0.3 µM, first compound 0.0316 µM): 21.3%
- viability, T/C (second compound 0.3 µM, first compound 0.1 µM): 20.1%
- viability, T/C (second compound 0.3 µM, first compound 0.316 µM): 21.7%
- viability, T/C (second compound 0.3 µM, first compound 1 µM): 21.4%
